How the values were obtained:
Assay in all cases: KAM-matrix competition in K562 lysate;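 as to 0.001 uM KAM: median log10 fold change of treatment over DMSO control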;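 as to 0.01 uM KAM: median log10 fold change of treatment over DMSO control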;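 as to 0.1 uM KAM: median log10 fold change of treatment over DMSO control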;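 as to 1 uM KAM: median log10 fold change of treatment over DMSO control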;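 as to 10 uM KAM: median log10 fold change of treatment over DMSO control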
Type in all cases: binding
MAP3K3 = target: T1, MAP3K3 (Homo sapiens, UniProt Q99759)
T1 construct: endogenous in cells; host or cells: K562 cell lysate
T1 sequence (Q99759 1-626): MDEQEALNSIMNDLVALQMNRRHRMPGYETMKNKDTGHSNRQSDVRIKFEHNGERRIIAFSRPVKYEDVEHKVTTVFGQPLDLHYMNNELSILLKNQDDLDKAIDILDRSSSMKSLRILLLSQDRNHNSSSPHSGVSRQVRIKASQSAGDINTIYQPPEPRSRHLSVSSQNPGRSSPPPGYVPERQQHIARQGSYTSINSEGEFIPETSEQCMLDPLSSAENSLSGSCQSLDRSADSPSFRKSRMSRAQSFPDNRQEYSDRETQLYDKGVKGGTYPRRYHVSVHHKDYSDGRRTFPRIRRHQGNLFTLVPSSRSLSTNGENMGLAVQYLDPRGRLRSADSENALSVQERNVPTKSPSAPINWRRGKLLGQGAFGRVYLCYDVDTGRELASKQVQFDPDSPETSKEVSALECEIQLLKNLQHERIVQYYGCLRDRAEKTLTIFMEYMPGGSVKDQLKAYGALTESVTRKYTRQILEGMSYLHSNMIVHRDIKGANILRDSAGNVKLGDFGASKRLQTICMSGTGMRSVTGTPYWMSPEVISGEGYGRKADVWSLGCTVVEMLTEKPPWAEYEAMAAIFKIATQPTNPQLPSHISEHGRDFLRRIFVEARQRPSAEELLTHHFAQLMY
Procedure: (§1) Supplement 12953_2017_125_MOESM1_ESM.zip/MS_Supp Info.xlsx, sheet "KAM" | column: 10 uM KAM; 1 uM KAM; 0.1 uM KAM; 0.01 uM KAM; 0.001 uM KAM; RB50

CDK10 = target: T2, CDK10 (Homo sapiens, UniProt Q15131)
T2 construct: endogenous in cells; host or cells: K562
Procedure: as §1

MAPKAPK2 = target: T3, MAPKAPK2 (Homo sapiens, UniProt P49137);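 as to 0.001 uM KAM: median log10 fold change of treatment over DMSO control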;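 as to 0.01 uM KAM: median log10 fold change of treatment over DMSO control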;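 as to 0.1 uM KAM: median log10 fold change of treatment over DMSO control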;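 as to 1 uM KAM: median log10 fold change of treatment over DMSO control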;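 as to 10 uM KAM: median log10 fold change of treatment over DMSO control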
T3 construct: endogenous in cells; host or cells: K562
Procedure: as §1

PTK2B = target: T4, PTK2B (Homo sapiens, UniProt Q14289)
T4 construct: endogenous in cells; host or cells: K562
Procedure: as §1

BMPR2 = target: T5, BMPR2 (Homo sapiens, UniProt Q13873);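 as to 0.001 uM KAM: median log10 fold change of treatment over DMSO control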;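 as to 0.01 uM KAM: median log10 fold change of treatment over DMSO control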;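 as to 0.1 uM KAM: median log10 fold change of treatment over DMSO control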;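 as to 1 uM KAM: median log10 fold change of treatment over DMSO control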;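 as to 10 uM KAM: median log10 fold change of treatment over DMSO control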
T5 construct: endogenous in cells; host or cells: K562
T5 sequence (Q13873 27-1038): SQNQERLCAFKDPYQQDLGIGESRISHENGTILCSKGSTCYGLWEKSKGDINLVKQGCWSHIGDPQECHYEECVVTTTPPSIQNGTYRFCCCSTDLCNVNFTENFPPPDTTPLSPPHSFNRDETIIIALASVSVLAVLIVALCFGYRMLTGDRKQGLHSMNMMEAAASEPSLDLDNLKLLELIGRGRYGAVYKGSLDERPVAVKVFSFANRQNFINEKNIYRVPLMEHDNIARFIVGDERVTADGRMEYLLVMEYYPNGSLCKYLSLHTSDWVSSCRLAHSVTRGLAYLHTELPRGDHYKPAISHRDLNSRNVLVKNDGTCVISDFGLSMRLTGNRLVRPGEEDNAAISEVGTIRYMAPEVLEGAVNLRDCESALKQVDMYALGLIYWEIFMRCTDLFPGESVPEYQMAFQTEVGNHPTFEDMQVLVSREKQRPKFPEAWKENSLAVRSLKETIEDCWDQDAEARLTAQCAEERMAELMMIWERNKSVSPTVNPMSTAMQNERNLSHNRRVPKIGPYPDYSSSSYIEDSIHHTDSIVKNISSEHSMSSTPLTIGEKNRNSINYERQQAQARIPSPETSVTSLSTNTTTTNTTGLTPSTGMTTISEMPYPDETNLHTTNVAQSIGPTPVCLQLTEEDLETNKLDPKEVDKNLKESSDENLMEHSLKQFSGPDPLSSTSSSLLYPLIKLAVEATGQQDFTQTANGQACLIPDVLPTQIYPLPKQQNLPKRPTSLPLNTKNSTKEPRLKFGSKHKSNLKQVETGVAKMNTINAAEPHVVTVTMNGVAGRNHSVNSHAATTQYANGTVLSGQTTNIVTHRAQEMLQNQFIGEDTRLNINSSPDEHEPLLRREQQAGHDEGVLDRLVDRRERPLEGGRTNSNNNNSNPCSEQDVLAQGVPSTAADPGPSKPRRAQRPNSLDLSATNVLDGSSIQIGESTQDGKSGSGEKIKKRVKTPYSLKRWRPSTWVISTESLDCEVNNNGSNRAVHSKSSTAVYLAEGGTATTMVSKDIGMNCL
Procedure: as §1

CSNK2A2 = target: T6, CSNK2A2 (Homo sapiens, UniProt P19784)
T6 construct: endogenous in cells; host or cells: K562
Procedure: as §1

PEAK1 = target: T7, PEAK1 (Homo sapiens, UniProt Q9H792);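 as to 0.001 uM KAM: median log10 fold change of treatment over DMSO control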;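 as to 0.01 uM KAM: median log10 fold change of treatment over DMSO control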;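 as to 0.1 uM KAM: median log10 fold change of treatment over DMSO control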;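 as to 1 uM KAM: median log10 fold change of treatment over DMSO control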;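 as to 10 uM KAM: median log10 fold change of treatment over DMSO control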
T7 construct: endogenous in cells; host or cells: K562
Procedure: as §1

ABL2 = target: T8, ABL2 (Homo sapiens, UniProt P42684)
T8 construct: endogenous in cells; host or cells: K562
Procedure: as §1

[1] = read-out: RB50 (the source's name)
[2] = KAM 0.001-10 uM, read-out: RB50 (the source's name)

Which results are given for `N#CCc1ccc(Nc2nc(NCCCN)cc(Nc3cc(C4CC4)[nH]n3)n2)cc1` [KAM]?
median Log10 fold change (MAP3K3; 0.001 uM KAM): -0.04647; median Log10 fold change (MAP3K3; 0.01 uM KAM): 0.002946; median Log10 fold change (MAP3K3; 0.1 uM KAM): -0.1524; median Log10 fold change (MAP3K3; 1 uM KAM): -0.3206; median Log10 fold change (MAP3K3; 10 uM KAM): -0.4381; IC50 (MAP3K3; [1]): 1000 nM; median Log10 fold change (CDK10; 0.001 uM KAM): 0.01311; median Log10 fold change (CDK10; 0.01 uM KAM): -0.05132; median Log10 fold change (CDK10; 0.1 uM KAM): -0.3516; median Log10 fold change (CDK10; 1 uM KAM): -0.4253; median Log10 fold change (CDK10; 10 uM KAM): -0.3533; IC50 (CDK10; [1]): 130 nM; IC50 (MAPKAPK2; [2]): > 10000 nM; 0.001 uM KAM (MAPKAPK2; relative to 0 uM KAM = 0): 0.05207; 0.01 uM KAM (MAPKAPK2; relative to 0 uM KAM = 0): -0.01973; 0.1 uM KAM (MAPKAPK2; relative to 0 uM KAM = 0): 0.02471; 1 uM KAM (MAPKAPK2; relative to 0 uM KAM = 0): 0.08157; 10 uM KAM (MAPKAPK2; relative to 0 uM KAM = 0): 0.02045; median Log10 fold change (PTK2B; 0.001 uM KAM): -0.01732; median Log10 fold change (PTK2B; 0.01 uM KAM): -0.009714; median Log10 fold change (PTK2B; 0.1 uM KAM): -0.1905; median Log10 fold change (PTK2B; 1 uM KAM): -0.4119; median Log10 fold change (PTK2B; 10 uM KAM): -0.5329; IC50 (PTK2B; [1]): 460 nM; IC50 (BMPR2; [2]): 6670 nM; 0.001 uM KAM (BMPR2; relative to 0 uM KAM = 0): 0.0006826; 0.01 uM KAM (BMPR2; relative to 0 uM KAM = 0): -0.02948; 0.1 uM KAM (BMPR2; relative to 0 uM KAM = 0): -0.09644; 1 uM KAM (BMPR2; relative to 0 uM KAM = 0): -0.1591; 10 uM KAM (BMPR2; relative to 0 uM KAM = 0): -0.3053; median Log10 fold change (CSNK2A2; 0.001 uM KAM): 0.0115; median Log10 fold change (CSNK2A2; 0.01 uM KAM): -0.003085; median Log10 fold change (CSNK2A2; 0.1 uM KAM): -0.2921; median Log10 fold change (CSNK2A2; 1 uM KAM): -0.5833; median Log10 fold change (CSNK2A2; 10 uM KAM): -0.635; IC50 (CSNK2A2; [1]): 150 nM; IC50 (PEAK1; [2]): > 10000 nM; 0.001 uM KAM (PEAK1; relative to 0 uM KAM = 0): 0.04051; 0.01 uM KAM (PEAK1; relative to 0 uM KAM = 0): 0.04298; 0.1 uM KAM (PEAK1; relative to 0 uM KAM = 0): 0.03477; 1 uM KAM (PEAK1; relative to 0 uM KAM = 0): 0.09337; 10 uM KAM (PEAK1; relative to 0 uM KAM = 0): 0.04238; median Log10 fold change (ABL2; 0.001 uM KAM): -0.03166; median Log10 fold change (ABL2; 0.01 uM KAM): -0.02797; median Log10 fold change (ABL2; 0.1 uM KAM): -0.1724; median Log10 fold change (ABL2; 1 uM KAM): -0.2861; median Log10 fold change (ABL2; 10 uM KAM): -0.4205; IC50 (ABL2; [1]): 1220 nM

From paper PMC5513037, “Examining the influence of specificity ligands and ATP-competitive ligands on the overall effectiveness of bivalent kinase inhibitors” (Proteome Science, 2017)
